Patent publication US12084472B2 (Ardelyx, Inc., priority 2015, dated 2024)

The compounds below were run against T1, human TGR5 (Homo sapiens, UniProt Q8TDU6) (assay: Cell-based TGR5 assay (cAMP generation, HTRF)). Conditions: HEK293 cells stably transfected with human TGR5; cAMP by HTRF; 30 minutes at 37° C.; read-out: pEC50 Human TGR5 (converted).
T1 construct: expressed in transfected cells; host or cells: HEK293
T1 sequence (Q8TDU6 1-330): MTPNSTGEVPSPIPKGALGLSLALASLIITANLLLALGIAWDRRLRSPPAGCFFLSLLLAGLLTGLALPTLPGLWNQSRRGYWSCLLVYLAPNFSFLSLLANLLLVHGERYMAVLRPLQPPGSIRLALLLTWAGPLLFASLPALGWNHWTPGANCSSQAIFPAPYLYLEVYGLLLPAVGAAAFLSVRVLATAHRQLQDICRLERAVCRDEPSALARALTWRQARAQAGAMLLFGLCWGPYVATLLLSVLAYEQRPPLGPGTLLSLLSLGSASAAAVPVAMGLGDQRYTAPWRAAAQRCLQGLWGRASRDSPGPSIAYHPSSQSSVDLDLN
Outline: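 Read-out was HTRF detection of cAMP, converted to concentration via a standard curve and fitted (3-parameter logistic) for pEC50 and maximal response. Agonist stimulation used HEK293 cells stably transfected with human TGR5, incubated 30 min at 37° C in IBMX-containing buffer at 0.05 nM to 10 μM compound.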
For O=C(NCCOCCS(=O)(=O)c1ccc(Cl)c(COC2(c3cnccc3-c3ccccc3OC3CC3)CC2)c1)NC[C@H](O)[C@@H](O)[C@H](O)[C@H](O)CO [Compound I-492, 1-[2-(2-[[4-Chloro-3-([l-[4-(2-cyclopropoxyphenyl)pyridin-3-yl]cyclopropoxy]methyl)benzene]sulfonyl]ethoxy)ethyl]-3-[(2S,3R,4R,5R)-2,3,4,5,6-pentahydroxyhexyl]urea], the EC50 was less than 100 nM. In the case of NC(=O)CCN(C[C@H](O)[C@@H](O)[C@H](O)[C@H](O)CO)C(=O)CCCSc1ccc(Cl)c(COC2(c3cnccc3-c3ccccc3OC3CC3)CC2)c1 [Compound I-675, N-(2-carbamoylethyl)-4-{[4-chloro-3-({1-[4-(2-cyclopropoxyphenyl)pyridin-3-yl]cyclopropoxy}methyl)phenyl]sulfanyl}-N-[(2S,3R,4R,5R)-2,3,4,5,6-pentahydroxyhexyl]butanamide], the EC50 is reported as 1260 to 10000 nM. O=C(NCCOCCSc1ccc(Cl)c(COC2(c3cnccc3-c3ccccc3OC3CC3)CC2)c1)N[C@@H](CO)[C@@H](O)[C@H](O)[C@H](O)CO [Compound I-637, 1-[2-(2-{[4-chloro-3-({1-[4-(2-cyclopropoxyphenyl)pyridin-3-yl]cyclopropoxy}methyl)phenyl]sulfanyl}ethoxy)ethyl]-3-[(2S,3R,4S,5R)-1,3,4,5,6-pentahydroxyhexan-2-yl]urea] was tested, and the EC50 was less than 100 nM. CSc1cnc(CNC2(c3cnccc3-c3ccccc3OC3CC3)CC2)c(C)c1 [Compound I-39, 1-[4-(2-cyclopropoxyphenyl)pyridin-3-yl]-N-{[3-methyl-5-(methylsulfanyl)pyridin-2-yl]methyl}cyclopropan-1-amine] was tested, and the EC50 was 126 to 1000 nM. Compound CC(CCCN(CC1CCOCC1)C(=O)[C@@H](O)[C@@H](O)[C@H](O)[C@@H](O)CO)c1ccc(Cl)c(CNC2(c3cnccc3-c3ccccc3OC3CC3)CC2)c1 (stereo partly drawn) [Compound I-287, (2S,3S,4R,5S)-N-(4-{4-chloro-3-[({1-[4-(2-cyclopropoxyphenyl)pyridin-3-yl]cyclopropyl}amino)methyl]phenyl}pentyl)-2,3,4,5,6-pentahydroxy-N-(oxan-4-ylmethyl)hexanamide] has an EC50 of less than 100 nM. For CSc1cnc(C)cc1CNC1(c2cnccc2-c2ccccc2OC2CC2)CC1 [Compound I-42, 1-[4-(2-cyclopropoxyphenyl)pyridin-3-yl]-N-{[2-methyl-5-(methylsulfanyl)pyridin-4-yl]methyl}cyclopropan-1-amine], the EC50 was less than 100 nM. With O=C1O[C@H]([C@@H](O)[C@H](O)[C@H](O)CO)CN1CCCCc1cc(Cl)c(COC2(c3cnccc3-c3ccccc3OC3CC3)CC2)cc1Cl [Compound I-77, (5S)-3-{4-[2,5-dichloro-4-({1-[4-(2-cyclopropoxyphenyl)pyridin-3-yl]cyclopropoxy}methyl)phenyl]butyl}-5-[(1S,2R,3R)-1,2,3,4-tetrahydroxybutyl]-1,3-oxazolidin-2-one] the EC50 was less than 100 nM. For Cc1ccc(SCCCCC(=O)NC[C@H](O)[C@@H](O)[C@H](O)[C@H](O)CO)nc1COC1(c2cnccc2-c2ccccc2OC2CC2)CC1 [Compound I-657, 5-{[6-({1-[4-(2-cyclopropoxyphenyl)pyridin-3-yl]cyclopropoxy}methyl)-5-methylpyridin-2-yl]sulfanyl}-N-[(2S,3R,4R,5R)-2,3,4,5,6-pentahydroxyhexyl]pentanamide], the EC50 was 1260 to 10000 nM. In the case of O=C([C@@H](O)[C@@H](O)[C@H](O)[C@@H](O)CO)N(CCCCO)CCCSc1ccc(Cl)c(COC2(c3cnccc3-c3ccccc3OC3CC3)CC2)c1 [Compound I-519, (2S,3S,4R,5S)-N-(3-{[4-chloro-3-({1-[4-(2-cyclopropoxyphenyl)pyridin-3-yl]cyclopropoxy}methyl)phenyl]sulfanyl}propyl)-2,3,4,5,6-pentahydroxy-N-(4-hydroxybutyl)hexanamide], the EC50 is reported as 126 to 1000 nM. O=C([C@@H](O)[C@@H](O)[C@H](O)[C@@H](O)CO)N(CCCCSc1ccc(Cl)c(CNC2(c3cnccc3-c3ccccc3OC3CC3)CC2)c1)CCN1CCS(=O)(=O)CC1 [Compound I-557, (2S,3S,4R,5S)-N-[4-({4-chloro-3-[({1-[4-(2-cyclopropoxyphenyl)pyridin-3-yl]cyclopropyl}amino)methyl]phenyl}sulfanyl)butyl]-N-[2-(1,1-dioxo-1λ^6,4-thiomorpholin-4-yl)ethyl]-2,3,4,5,6-pentahydroxyhexanamide] gave an EC50 of 126 to 1000 nM. With Cc1ccc(S(=O)(=O)N(C)CCCCNC(=O)N[C@@H](CO)[C@@H](O)[C@H](O)[C@H](O)CO)cc1CNC1(c2cnccc2-c2ccccc2OC2CC2)CC1 [Compound I-478, 1-(4-{N-methyl3-[({1-[4-(2-cyclopropoxyphenyl)pyridin-3-yl]cyclopropyl}amino)methyl]-4-methylbenzenesulfonamido}butyl)-3-[(2S,3R,4S,5R)-1,3,4,5,6-pentahydroxyhexan-2-yl]urea] the EC50 was less than 100 nM. Work on O=C(NCCOCCSc1ccc(Cl)c(COC2(c3cnccc3-c3ccccc3OC3COC3)CC2)c1)NC[C@H](O)[C@@H](O)[C@H](O)[C@H](O)CO [Compound I-493, 1-(2-(2-(4-Chloro-3-((1-(4-(2-(oxetan-3-yloxy)phenyl)pyridin-3-yl)cyclopropoxy)methyl)phenylthio)ethoxy)ethyl)-3-((2S,3R,4R,5R)-2,3,4,5,6-pentahydroxyhexyl)urea] yielded an EC50 of less than 100 nM. O=C(NCCCCOc1ccc(Cl)c(COC2(c3cnccc3-c3ccccc3OC3CC3)CC2)c1)NC[C@H](O)[C@@H](O)[C@H](O)[C@H](O)CO [Compound I-755, 1-(4-(4-chloro-3-((1-(4-(2-cyclopropoxyphenyl)pyridin-3-yl)cyclopropoxy)methyl)phenoxy)butyl)-3-((2S,3R,4R,5R)-2,3,4,5,6-pentahydroxyhexyl)urea] showed an EC50 of 126 to 1000 nM. Compound CS(=O)(=O)CCCN(CCCCSc1ccc(Cl)c(CNC2(c3cnccc3-c3ccccc3OC3CC3)CC2)c1)C(=O)[C@@H](O)[C@@H](O)[C@H](O)[C@@H](O)CO [Compound I-532, (2S,3S,4R,5S)-N-[4-({4-chloro-3-[({1-[4-(2-cyclopropoxyphenyl)pyridin-3-yl]cyclopropyl}amino)methyl]phenyl}sulfanyl)butyl]-2,3,4,5,6-pentahydroxy-N-(3-methanesulfonylpropyl) hexanamide] has an EC50 of less than 100 nM. Compound CCCN(C[C@H](O)[C@@H](O)[C@H](O)[C@H](O)CO)C(=O)CCCSc1ccc(Cl)c(COC2(c3cnccc3-c3ccccc3OC3CC3)CC2)c1 [Compound I-666, 4-{[4-chloro-3-({1-[4-(2-cyclopropoxyphenyl)pyridin-3-yl]cyclopropoxy}methyl)phenyl]sulfanyl}-N-[(2S,3R,4R,5R)-2,3,4,5,6-pentahydroxyhexyl]-N-propylbutanamide] has an EC50 of less than 100 nM. With O=C(NC[C@H](O)[C@@H](O)[C@H](O)[C@H](O)CO)C1CCN(S(=O)(=O)c2ccc(Cl)c(COC3(c4cnccc4-c4ccccc4OC4CC4)CC3)c2)CC1 [Compound I-437, 1-[4-chloro-3-({1-[4-(2-cyclopropoxyphenyl)pyridin-3-yl]cyclopropoxy}methyl)benzenesulfonyl]-N-[(2S,3R,4R,5R)-2,3,4,5,6-pentahydroxyhexyl]piperidine-4-carboxamide] the EC50 was less than 100 nM. CCS(=O)(=O)CCN(CCCCC(C)c1ccc(Cl)c(CNC2(c3cnccc3-c3ccccc3OC3CC3)CC2)c1)C(=O)[C@@H](O)[C@@H](O)[C@H](O)[C@@H](O)CO (stereo partly drawn) [Compound I-296, (2S,3S,4R,5S)-N-(5-{4-chloro-3-[({1-[4-(2-cyclopropoxyphenyl)pyridin-3-yl]cyclopropyl}amino)methyl]phenyl}hexyl)-N-[2-(ethanesulfonyl)ethyl]-2,3,4,5,6-pentahydroxyhexanamide] showed an EC50 of less than 100 nM. O=C(NCCCCSc1ccc(Cl)c(CNC2(c3cnccc3-c3ccccc3OC3CC3)CC2)c1)NC[C@H](O)[C@@H](O)[C@H](O)[C@H](O)CO [Compound I-623, 1-[4-({4-chloro-3-[({1-[4-(2-cyclopropoxyphenyl)pyridin-3-yl]cyclopropyl}amino)methyl]phenyl}sulfanyl)butyl]-3-[(2S,3R,4R,5R)-2,3,4,5,6-pentahydroxyhexyl]urea] gave an EC50 of less than 100 nM. In the case of O=C(CCN(CCC(=O)NC[C@H](O)[C@@H](O)[C@H](O)[C@H](O)CO)C(=O)CCCCc1cc(Cl)c(COC2(c3cnccc3-c3ccccc3OC3CC3)CC2)cc1Cl)NC[C@H](O)[C@@H](O)[C@H](O)[C@H](O)CO (stereo in doubt) [Compound I-168, 5-[2,5-dichloro-4-({1-[4-(2-cyclopropoxyphenyl)pyridin-3-yl]cyclopropoxy}methyl)phenyl]-N,N-bis(2-{[(2S,3R,4R,5R)-2,3,4,5,6-pentahydroxyhexyl]carbamoyl}ethyl)pentanamide], the EC50 is reported as less than 100 nM. With O=S(=O)(Nc1nccs1)c1ccc(Cl)c(COC2(c3cnccc3-c3ccccc3OC3CC3)CC2)c1 [Compound I-770, 4-chloro-3-((1-(4-(2-cyclopropoxyphenyl)pyridin-3-yl)cyclopropoxy)methyl)-N-(thiazol-2-yl)benzenesulfonamide] the EC50 was less than 100 nM. O=C(NCCCCSc1ccc(Cl)c(COC2(c3cnccc3-c3ccccc3OC3CC3)CC2)c1)NC[C@H](O)[C@@H](O)[C@H](O)[C@H](O)CO [Compound I-621, 1-(4-{[4-chloro-3-({1-[4-(2-cyclopropoxyphenyl)pyridin-3-yl]cyclopropoxy}methyl)phenyl]sulfanyl}butyl)-3-[(2S,3R,4R,5R)-2,3,4,5,6-pentahydroxyhexyl]urea] showed an EC50 of less than 100 nM.
